The source of these data is PMC3065929 (Journal of the American Chemical Society, 2011).

Holding throughout (type): biochemical
Assay [1] has as its target T1, NapH1 (Streptomyces sp. CNQ-525, UniProt A7KH27).
T1 sequence (A7KH27 42-527): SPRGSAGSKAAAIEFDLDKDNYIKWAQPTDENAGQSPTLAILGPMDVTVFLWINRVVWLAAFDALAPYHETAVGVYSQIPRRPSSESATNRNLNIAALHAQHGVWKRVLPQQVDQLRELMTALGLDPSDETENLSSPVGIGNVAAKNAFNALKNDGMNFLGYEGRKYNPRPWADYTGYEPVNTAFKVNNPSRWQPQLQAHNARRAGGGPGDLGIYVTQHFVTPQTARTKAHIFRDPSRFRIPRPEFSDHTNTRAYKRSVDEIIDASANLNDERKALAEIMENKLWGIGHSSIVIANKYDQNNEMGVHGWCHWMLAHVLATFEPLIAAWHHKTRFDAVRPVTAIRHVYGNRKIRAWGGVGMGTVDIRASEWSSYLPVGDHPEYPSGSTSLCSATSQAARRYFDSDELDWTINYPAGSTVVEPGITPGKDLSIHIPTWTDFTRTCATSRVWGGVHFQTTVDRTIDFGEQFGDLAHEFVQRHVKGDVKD
Put plainly: HPLC assay of chlorination-cyclization. As to conditions: H2O2, chloride, pH 6; estimated, below detection limit of the assay.

Assay [2] deals with T2, CoBPO (Corallina officinalis, UniProt Q8LLW7).
T2 sequence (Q8LLW7 1-598): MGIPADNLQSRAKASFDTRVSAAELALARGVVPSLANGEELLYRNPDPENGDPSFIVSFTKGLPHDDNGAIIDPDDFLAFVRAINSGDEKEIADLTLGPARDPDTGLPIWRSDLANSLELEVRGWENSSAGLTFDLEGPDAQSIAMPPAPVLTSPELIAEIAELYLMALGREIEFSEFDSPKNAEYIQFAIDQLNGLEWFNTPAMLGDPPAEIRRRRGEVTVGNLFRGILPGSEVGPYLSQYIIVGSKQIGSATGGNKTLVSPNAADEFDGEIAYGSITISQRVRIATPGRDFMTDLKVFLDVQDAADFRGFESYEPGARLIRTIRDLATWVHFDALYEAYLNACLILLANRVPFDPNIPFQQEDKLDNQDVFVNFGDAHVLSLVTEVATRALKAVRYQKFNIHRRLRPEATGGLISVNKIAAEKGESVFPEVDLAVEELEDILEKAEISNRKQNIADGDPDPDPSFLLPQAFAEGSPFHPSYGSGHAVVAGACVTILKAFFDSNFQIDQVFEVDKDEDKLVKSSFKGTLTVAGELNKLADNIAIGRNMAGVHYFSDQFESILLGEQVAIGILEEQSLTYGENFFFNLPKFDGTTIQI
Put plainly: conversion to products.

The target of assay [3] is T2, CoBPO. Put plainly: spectrophotometric MCD bromination assay. As to conditions: H2O2, 0.2 M bromide, 30 °C.

As for `CC(C)=CCC/C(C)=C/C[C@@]1(O)C(=O)c2cc(O)c(C)c(O)c2C(=O)[C@]1(Cl)CC=C(C)C` [compound 3, SF2415B1], the Michaelis-Menten constant (Km) (in general, the substrate concentration at which the rate is half of its maximum) in assay [1] was below 1000 nM.
On to `CC(C)=CCC1=C(O)C(=O)c2ccccc2C1=O` [lapachol, 4-hydroxy-3-(3-methylbut-2-enyl)naphthalene-1,2-dione], for which the conversion to products entry in assay [2] is reported as “CoBPO catalyzed the complete conversion of lapachol into numerous products”.
Consider `CC1(C)CC(=O)C(Cl)C(=O)C1` [monochlorodimedone], for which, in assay [3], the “spectrophotometric MCD bromination assay (290 nm)” value is “Corallina officinalis V-BPO (CoBPO) (below)”.
